Data from patent publication US9532983B2, “Benzofuran compounds, compositions, kits and/or methods thereof” (Savannah State University, priority 2013, dated 2017).

What was measured:
M4 = biological target: T1, M4 (Homo sapiens, UniProt P08173); experiment: Secondary binding assay, Ki determination: M4
T1 construct: expressed in transfected cells
T1 sequence (P08173 1-479): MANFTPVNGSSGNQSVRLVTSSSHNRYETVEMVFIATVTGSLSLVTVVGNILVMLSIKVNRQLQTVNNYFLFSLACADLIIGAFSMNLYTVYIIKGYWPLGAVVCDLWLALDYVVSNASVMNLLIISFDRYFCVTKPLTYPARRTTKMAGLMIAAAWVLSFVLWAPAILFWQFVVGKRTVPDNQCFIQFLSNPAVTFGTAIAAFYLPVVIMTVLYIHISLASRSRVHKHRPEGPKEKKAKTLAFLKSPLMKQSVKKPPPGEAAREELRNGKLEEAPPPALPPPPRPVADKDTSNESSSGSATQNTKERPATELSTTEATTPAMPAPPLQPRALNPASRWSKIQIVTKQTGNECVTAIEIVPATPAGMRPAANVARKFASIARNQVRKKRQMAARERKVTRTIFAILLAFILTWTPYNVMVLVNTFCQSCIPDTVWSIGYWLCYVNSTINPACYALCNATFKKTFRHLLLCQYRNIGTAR

5HT3 = biological target: T2, 5HT3 (Homo sapiens, UniProt P46098); experiment: Secondary binding assay, Ki determination: 5HT3
T2 construct: expressed in transfected cells
T2 sequence (P46098 24-478): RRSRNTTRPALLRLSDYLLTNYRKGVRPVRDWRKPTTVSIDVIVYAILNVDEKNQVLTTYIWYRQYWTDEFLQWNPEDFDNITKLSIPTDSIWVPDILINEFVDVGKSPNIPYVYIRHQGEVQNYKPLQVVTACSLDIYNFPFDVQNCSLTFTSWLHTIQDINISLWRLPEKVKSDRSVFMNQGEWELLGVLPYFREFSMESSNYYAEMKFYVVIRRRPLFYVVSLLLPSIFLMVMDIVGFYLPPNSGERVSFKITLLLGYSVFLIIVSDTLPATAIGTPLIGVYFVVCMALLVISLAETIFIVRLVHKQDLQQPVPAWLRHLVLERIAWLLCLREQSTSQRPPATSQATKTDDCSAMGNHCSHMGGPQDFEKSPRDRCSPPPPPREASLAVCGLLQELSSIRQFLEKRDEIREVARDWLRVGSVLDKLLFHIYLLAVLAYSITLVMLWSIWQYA

5-HT2A = biological target: T3, 5-HT2A (Homo sapiens, UniProt P28223); experiment: Secondary binding assay, Ki determination: 5-HT2A
T3 construct: expressed in transfected cells

Alpha2A [1] = biological target: T4, Alpha2A (Homo sapiens, UniProt P08913); experiment: Primary binding assay at non-sigma receptors: Alpha2A; conditions: 10 μM (final) assay concentration
T4 construct: expressed in transfected cells
T4 sequence (P08913 1-465): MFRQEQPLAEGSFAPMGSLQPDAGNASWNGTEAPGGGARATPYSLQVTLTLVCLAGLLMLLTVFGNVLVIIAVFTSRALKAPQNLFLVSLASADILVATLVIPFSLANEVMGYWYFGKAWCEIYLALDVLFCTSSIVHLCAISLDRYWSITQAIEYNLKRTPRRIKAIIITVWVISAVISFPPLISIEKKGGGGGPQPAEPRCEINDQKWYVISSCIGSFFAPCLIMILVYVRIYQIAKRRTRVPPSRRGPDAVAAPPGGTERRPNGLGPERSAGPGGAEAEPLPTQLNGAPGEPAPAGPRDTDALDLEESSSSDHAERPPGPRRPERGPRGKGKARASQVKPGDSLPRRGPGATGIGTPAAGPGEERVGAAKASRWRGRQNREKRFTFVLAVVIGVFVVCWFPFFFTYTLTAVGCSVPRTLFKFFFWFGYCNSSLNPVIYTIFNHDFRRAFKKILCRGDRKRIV
Description: (§1) Initial primary binding screening assays were performed using a 50 μM (initial)−10 μM (final) assay concentration of reference and test compounds.

Alpha2A [2] = biological target: T4, Alpha2A; experiment: Secondary binding assay, Ki determination: Alpha2A
non-sigma receptors = experiment: Binding screen against panel of non-sigma receptors (overall statement)
Description: as §1

T3 sequence (P28223 whole entry): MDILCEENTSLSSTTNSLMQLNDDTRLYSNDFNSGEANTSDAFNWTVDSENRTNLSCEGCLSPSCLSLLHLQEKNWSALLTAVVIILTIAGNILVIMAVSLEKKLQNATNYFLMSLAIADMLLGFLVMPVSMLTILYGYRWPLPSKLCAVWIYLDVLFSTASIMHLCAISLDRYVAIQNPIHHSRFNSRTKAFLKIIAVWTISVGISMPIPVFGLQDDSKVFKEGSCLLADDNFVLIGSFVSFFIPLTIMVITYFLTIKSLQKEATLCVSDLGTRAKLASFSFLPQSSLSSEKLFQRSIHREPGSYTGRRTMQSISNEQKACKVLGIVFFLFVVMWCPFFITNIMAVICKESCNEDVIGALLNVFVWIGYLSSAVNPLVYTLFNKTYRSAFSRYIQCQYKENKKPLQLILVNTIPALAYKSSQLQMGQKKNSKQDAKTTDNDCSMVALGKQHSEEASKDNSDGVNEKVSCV

Row | Compound | Ki (M4) [nM] | Ki (5HT3) [nM] | Ki (5-HT2A) [nM] | inhibition at 10 µM (Alpha2A [1]) [%] | Ki (Alpha2A [2]) [nM] | affinity at non-sigma receptors selected for secondary binding assay (in words) (non-sigma receptors) | selectivity for sigma receptors (σ1 and σ2) over non-sigma receptors (in words) (non-sigma receptors)
1 | COc1cc2oc(C(=O)N(CCCN3CCCCC3)c3ccccc3)c(C)c2cc1OC [KSCM-1, 5,6-Dimethoxy-3-methyl-N-phenyl-N-(3-(piperidin-1-yl)propyl)benzofuran-2-carboxamide] | 2870 | 7610 | 2560 |  |  |  | 
2 | Cc1c(C(=O)N(CCCN2CCCCC2)c2ccccc2)oc2ccccc12 [KSCM-5, 3-Methyl-N-phenyl-N-(3-(piperidin-1-yl)propyl)benzofuran-2-carboxamide] |  |  |  | 77.7 | 1230 |  | 
3 | COc1ccc2c(C)c(C(=O)N(CCCN3CCCCC3)c3ccccc3)oc2c1 [KSCM-11, 6-Methoxy-3-methyl-N-phenyl-N-(3-(piperidin-1-yl)propyl)benzofuran-2-carboxamide] |  |  | 2770 | 81.1 | 653 | no significant affinity | have the desired selectivity for sigma receptors
